According to ChEMBL document CHEMBL4800729 (2021):

Columns and labels:
[1] = target: Beta-1 adrenergic receptor (Homo sapiens) (UniProt P08588); conditions: Compound concentration 10.0 uM
[2] = target: Histamine H3 receptor (Homo sapiens) (UniProt Q9Y5N1); conditions: Compound concentration 10.0 uM
[3] = target: T1, Muscarinic acetylcholine receptor M1 (Homo sapiens) (UniProt P11229); conditions: Compound concentration 10.0 uM
T1 sequence (whole entry): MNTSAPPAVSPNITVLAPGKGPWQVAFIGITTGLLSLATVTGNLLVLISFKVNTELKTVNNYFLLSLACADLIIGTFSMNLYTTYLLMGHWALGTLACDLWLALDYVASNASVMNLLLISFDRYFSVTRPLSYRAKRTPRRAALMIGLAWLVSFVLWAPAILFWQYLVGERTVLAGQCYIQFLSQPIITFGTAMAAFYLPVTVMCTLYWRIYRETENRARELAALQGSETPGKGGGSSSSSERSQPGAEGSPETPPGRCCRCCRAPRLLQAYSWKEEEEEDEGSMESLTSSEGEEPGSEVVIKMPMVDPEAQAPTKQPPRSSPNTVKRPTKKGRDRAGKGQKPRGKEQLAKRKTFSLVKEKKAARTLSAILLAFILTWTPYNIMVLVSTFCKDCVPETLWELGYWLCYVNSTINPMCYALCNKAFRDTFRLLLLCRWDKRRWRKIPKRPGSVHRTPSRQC

[4] = target: Histamine H4 receptor (Homo sapiens) (UniProt Q9H3N8); conditions: Compound concentration 10.0 uM
[5] = target: Sodium-dependent dopamine transporter (Homo sapiens) (UniProt Q01959); conditions: Compound concentration 10.0 uM
[6] = target: Sigma intracellular receptor 2 (Homo sapiens) (UniProt Q5BJF2); conditions: Compound concentration 10.0 uM
[7] = target: Beta-3 adrenergic receptor (Homo sapiens) (UniProt P13945); conditions: Compound concentration 10.0 uM
[8] = target: 5-hydroxytryptamine receptor 3A (Homo sapiens) (UniProt P46098); conditions: Compound concentration 10.0 uM
[9] = target: Histamine H1 receptor (Homo sapiens) (UniProt P35367); conditions: Compound concentration 10.0 uM
[10] = target: T2, 5-hydroxytryptamine receptor 1A (Homo sapiens) (UniProt P08908); conditions: Compound concentration 10.0 uM
T2 sequence (whole entry): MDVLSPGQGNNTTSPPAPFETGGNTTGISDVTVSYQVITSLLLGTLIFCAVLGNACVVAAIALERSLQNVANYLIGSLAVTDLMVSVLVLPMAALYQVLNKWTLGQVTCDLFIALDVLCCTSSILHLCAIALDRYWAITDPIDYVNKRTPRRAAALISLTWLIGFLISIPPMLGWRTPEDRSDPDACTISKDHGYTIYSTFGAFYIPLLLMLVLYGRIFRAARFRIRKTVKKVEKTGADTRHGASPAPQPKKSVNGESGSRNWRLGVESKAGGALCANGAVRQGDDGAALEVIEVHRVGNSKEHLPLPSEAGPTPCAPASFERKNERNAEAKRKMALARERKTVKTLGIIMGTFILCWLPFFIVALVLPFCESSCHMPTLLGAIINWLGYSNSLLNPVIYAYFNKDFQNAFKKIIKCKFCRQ

[11] = target: Mu-type opioid receptor (Homo sapiens) (UniProt P35372); conditions: Compound concentration 10.0 uM
[12] = target: T3, Alpha-2C adrenergic receptor (Homo sapiens) (UniProt P18825); conditions: Compound concentration 10.0 uM
T3 sequence (whole entry): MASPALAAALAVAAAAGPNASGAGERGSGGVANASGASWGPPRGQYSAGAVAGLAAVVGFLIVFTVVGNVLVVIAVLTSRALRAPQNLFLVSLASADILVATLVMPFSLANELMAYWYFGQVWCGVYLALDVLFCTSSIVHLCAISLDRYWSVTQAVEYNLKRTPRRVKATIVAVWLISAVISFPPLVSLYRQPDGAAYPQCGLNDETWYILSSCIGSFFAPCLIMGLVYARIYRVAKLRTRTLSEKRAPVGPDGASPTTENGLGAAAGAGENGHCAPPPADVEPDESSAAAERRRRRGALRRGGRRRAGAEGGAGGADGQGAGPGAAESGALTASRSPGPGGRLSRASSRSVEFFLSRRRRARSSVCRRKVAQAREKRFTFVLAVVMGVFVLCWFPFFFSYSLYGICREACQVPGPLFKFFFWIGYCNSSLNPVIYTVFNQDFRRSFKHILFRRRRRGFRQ

[13] = target: Kappa-type opioid receptor (Homo sapiens) (UniProt P41145); conditions: Compound concentration 10.0 uM
[14] = target: Delta-type opioid receptor (Homo sapiens) (UniProt P41143); conditions: Compound concentration 10.0 uM
[15] = target: D(3) dopamine receptor (Homo sapiens) (UniProt P35462); conditions: Compound concentration 10.0 uM
[16] = target: T4, 5-hydroxytryptamine receptor 1B (Homo sapiens, UniProt P28222); conditions: Compound concentration 10.0 uM
[17] = target: 5-hydroxytryptamine receptor 2A (Homo sapiens) (UniProt P28223); conditions: Compound concentration 10.0 uM
[18] = target: 5-hydroxytryptamine receptor 5A (Homo sapiens) (UniProt P47898); conditions: Compound concentration 10.0 uM
[19] = target: Sigma non-opioid intracellular receptor 1 (Homo sapiens) (UniProt Q99720); conditions: Compound concentration 10.0 uM
[20] = target: Histamine H2 receptor (Homo sapiens) (UniProt P25021); conditions: Compound concentration 10.0 uM
[21] = species: Rattus norvegicus; conditions: Compound concentration 10.0 uM
[22] = target: D(2) dopamine receptor (Homo sapiens) (UniProt P14416); conditions: Compound concentration 10.0 uM
[23] = target: 5-hydroxytryptamine receptor 1D (Homo sapiens) (UniProt P28221); conditions: Compound concentration 10.0 uM
[24] = target: T4, 5-hydroxytryptamine receptor 1B; experiment: GPCRScan assay: inhibition of 5-HT1B; parameters: radioligand conc. used [nm] 0.6 – 1.5, parental cells stable HEK
[25] = target: 5-hydroxytryptamine receptor 6 (Homo sapiens, UniProt P50406); experiment: GPCRScan assay: inhibition of 5-HT6; parameters: radioligand conc. used [nm] 2.0 – 4.0, parental cells stable HEK
[26] = target: Sodium-dependent noradrenaline transporter (Homo sapiens) (UniProt P23975); conditions: Compound concentration 10.0 uM
[27] = target: T5, Alpha-2B adrenergic receptor (Homo sapiens) (UniProt P18089); conditions: Compound concentration 10.0 uM
T5 sequence (whole entry): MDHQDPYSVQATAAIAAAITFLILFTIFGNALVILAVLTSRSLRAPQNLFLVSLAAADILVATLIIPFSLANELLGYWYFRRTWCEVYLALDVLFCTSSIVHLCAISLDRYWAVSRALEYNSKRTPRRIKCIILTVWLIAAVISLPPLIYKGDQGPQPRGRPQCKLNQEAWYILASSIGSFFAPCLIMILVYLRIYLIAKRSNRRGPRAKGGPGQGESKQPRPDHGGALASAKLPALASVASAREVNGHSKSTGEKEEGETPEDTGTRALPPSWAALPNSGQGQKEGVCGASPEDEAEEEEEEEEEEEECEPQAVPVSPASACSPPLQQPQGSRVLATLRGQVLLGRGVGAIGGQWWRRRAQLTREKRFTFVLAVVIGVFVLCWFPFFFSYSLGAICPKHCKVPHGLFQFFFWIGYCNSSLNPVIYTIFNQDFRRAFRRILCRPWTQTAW

[28] = target: D(4) dopamine receptor (Homo sapiens) (UniProt P21917); conditions: Compound concentration 10.0 uM
[29] = target: Alpha-2A adrenergic receptor (Homo sapiens) (UniProt P08913); conditions: Compound concentration 10.0 uM
[30] = target: Muscarinic acetylcholine receptor M4 (Homo sapiens) (UniProt P08173); conditions: Compound concentration 10.0 uM
[31] = target: D(1A) dopamine receptor (Homo sapiens, UniProt P21728); experiment: GPCRScan assay: inhibition of D1; parameters: radioligand conc. used [nm] 0.6 – 1.3, parental cells HEKT
Sequence of D(1A) dopamine receptor (P21728 whole entry): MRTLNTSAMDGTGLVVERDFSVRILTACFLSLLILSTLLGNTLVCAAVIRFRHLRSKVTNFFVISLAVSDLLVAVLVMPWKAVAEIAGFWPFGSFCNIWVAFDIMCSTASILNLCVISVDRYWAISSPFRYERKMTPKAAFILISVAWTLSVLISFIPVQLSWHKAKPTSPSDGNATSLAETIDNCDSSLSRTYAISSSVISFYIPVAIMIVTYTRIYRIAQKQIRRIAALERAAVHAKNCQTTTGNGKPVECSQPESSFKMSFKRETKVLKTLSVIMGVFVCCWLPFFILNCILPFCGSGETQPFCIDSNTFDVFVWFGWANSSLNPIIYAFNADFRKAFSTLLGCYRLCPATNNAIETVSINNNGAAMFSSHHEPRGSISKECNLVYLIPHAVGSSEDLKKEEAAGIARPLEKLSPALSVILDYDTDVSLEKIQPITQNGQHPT

T4 sequence (P28222 whole entry): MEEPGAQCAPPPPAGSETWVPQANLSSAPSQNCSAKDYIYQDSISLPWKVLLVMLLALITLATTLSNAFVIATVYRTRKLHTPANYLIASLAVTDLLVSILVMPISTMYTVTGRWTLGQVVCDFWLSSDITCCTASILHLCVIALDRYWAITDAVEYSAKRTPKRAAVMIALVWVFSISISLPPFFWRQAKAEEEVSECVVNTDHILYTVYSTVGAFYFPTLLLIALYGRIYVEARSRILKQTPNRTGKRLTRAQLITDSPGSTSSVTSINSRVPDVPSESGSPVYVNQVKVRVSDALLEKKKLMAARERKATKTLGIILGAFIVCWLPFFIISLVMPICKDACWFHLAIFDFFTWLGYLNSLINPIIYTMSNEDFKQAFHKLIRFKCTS
Sequence of 5-hydroxytryptamine receptor 6 (P50406 whole entry): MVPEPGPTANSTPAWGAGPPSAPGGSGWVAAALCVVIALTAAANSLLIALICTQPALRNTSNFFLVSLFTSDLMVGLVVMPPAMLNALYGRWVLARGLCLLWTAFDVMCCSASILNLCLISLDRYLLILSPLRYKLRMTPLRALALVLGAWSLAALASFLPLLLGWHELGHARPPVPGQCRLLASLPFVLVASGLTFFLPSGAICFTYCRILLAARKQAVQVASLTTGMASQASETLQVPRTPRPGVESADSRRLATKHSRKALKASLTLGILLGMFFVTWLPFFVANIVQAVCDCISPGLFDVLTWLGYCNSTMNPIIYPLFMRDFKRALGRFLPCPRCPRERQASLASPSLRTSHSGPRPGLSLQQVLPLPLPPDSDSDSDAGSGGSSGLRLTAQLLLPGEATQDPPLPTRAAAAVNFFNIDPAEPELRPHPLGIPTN
Sequence of 5-hydroxytryptamine receptor 5A (Homo sapiens) (P47898 whole entry): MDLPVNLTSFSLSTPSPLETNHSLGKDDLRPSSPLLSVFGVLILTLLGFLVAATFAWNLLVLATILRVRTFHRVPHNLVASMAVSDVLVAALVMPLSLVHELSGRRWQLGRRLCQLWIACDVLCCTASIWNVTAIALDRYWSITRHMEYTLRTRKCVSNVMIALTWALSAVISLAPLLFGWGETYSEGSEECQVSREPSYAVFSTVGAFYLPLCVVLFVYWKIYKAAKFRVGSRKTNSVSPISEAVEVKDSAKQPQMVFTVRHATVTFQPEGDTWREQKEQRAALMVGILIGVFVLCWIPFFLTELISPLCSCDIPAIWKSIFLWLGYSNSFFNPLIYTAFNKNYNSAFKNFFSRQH
Sequence of 5-hydroxytryptamine receptor 1D (Homo sapiens) (P28221 whole entry): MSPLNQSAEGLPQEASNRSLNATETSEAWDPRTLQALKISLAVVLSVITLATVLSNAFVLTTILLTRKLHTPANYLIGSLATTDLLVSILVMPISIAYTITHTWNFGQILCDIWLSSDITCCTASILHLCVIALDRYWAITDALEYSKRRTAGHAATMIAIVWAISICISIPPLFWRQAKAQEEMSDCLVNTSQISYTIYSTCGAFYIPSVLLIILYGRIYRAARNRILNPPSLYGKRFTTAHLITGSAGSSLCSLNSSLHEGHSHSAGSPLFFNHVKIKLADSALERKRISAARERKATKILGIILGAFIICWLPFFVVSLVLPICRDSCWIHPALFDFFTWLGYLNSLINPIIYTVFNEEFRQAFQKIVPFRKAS
Sequence of Histamine H4 receptor (Homo sapiens) (Q9H3N8 whole entry): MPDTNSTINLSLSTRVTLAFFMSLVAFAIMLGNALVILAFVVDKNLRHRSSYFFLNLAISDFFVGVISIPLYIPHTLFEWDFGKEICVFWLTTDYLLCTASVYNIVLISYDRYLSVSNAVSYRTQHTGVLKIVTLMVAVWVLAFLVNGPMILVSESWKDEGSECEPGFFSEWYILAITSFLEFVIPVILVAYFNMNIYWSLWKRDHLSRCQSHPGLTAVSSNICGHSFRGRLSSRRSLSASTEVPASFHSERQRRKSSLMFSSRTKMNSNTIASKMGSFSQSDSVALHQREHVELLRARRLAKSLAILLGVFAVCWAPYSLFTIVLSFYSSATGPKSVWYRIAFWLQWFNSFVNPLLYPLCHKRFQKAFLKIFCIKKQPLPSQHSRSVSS
Sequence of D(4) dopamine receptor (Homo sapiens) (P21917 whole entry): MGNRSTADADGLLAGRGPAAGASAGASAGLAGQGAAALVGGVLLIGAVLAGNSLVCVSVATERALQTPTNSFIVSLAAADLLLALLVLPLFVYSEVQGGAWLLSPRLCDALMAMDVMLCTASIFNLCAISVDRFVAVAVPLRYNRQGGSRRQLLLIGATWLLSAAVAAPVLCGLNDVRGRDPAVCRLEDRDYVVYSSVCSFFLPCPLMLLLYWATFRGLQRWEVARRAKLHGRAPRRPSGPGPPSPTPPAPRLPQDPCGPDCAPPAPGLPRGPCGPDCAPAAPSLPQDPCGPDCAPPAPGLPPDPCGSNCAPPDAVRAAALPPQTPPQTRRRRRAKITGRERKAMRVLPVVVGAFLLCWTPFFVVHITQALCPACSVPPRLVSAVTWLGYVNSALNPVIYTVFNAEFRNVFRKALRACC
Sequence of D(2) dopamine receptor (Homo sapiens) (P14416 whole entry): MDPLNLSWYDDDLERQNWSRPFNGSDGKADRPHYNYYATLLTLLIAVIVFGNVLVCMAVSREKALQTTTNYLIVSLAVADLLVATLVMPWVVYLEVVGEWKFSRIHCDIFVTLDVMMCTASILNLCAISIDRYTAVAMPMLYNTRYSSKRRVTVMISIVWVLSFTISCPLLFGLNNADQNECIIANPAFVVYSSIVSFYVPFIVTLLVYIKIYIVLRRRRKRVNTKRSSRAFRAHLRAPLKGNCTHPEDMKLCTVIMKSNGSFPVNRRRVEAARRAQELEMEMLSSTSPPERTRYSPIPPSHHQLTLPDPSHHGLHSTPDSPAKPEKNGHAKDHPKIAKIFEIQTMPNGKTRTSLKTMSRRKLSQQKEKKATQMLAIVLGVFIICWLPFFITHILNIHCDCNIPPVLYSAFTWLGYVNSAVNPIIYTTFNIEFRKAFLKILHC
Sequence of Beta-1 adrenergic receptor (Homo sapiens) (P08588 whole entry, looked up): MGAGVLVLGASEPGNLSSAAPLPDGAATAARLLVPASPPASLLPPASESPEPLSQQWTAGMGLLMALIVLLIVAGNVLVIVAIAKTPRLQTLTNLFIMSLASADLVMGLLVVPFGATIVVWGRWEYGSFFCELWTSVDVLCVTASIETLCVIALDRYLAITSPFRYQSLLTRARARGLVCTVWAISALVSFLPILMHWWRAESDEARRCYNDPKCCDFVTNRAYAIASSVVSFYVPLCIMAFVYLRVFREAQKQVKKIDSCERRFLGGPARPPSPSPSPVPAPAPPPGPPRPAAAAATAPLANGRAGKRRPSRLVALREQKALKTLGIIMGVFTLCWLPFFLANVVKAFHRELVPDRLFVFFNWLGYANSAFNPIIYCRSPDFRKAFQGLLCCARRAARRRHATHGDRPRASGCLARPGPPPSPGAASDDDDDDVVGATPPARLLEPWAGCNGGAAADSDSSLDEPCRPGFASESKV
Sequence of D(3) dopamine receptor (Homo sapiens) (P35462 whole entry): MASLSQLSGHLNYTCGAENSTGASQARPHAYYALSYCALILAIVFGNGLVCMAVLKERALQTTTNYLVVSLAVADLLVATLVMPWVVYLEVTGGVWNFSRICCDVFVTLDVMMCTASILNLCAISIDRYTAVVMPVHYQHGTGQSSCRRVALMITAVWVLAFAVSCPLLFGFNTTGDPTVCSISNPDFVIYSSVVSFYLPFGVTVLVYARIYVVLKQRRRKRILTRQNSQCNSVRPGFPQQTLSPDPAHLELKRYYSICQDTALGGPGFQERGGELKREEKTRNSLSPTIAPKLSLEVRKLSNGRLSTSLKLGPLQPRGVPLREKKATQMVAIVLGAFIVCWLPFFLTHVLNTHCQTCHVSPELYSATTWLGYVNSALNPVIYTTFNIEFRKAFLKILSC
Sequence of Beta-3 adrenergic receptor (Homo sapiens) (P13945 whole entry, looked up): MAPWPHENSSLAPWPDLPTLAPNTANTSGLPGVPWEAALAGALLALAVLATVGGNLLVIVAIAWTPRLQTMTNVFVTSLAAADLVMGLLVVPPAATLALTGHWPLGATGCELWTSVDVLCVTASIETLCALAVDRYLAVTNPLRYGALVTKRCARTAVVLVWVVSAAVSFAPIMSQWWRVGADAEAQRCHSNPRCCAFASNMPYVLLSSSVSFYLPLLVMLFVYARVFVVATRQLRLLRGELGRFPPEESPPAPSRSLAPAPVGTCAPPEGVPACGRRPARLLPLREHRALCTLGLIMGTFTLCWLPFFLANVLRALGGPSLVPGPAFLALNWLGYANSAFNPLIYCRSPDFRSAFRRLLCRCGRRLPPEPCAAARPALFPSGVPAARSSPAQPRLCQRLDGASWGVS
Sequence of Histamine H2 receptor (Homo sapiens) (P25021 whole entry): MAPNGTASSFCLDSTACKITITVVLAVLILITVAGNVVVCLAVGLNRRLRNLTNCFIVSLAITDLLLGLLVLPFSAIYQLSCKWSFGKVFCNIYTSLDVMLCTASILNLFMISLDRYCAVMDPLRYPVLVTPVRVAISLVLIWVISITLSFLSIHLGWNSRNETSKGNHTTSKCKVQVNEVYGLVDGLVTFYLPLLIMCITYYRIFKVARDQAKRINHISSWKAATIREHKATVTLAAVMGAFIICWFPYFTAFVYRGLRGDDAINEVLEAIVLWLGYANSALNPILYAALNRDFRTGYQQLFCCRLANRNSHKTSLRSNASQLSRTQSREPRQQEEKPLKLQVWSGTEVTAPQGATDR

CC[C@H](Nc1c(C#N)c(-c2ccc(-c3cccc(C)c3F)cc2)nc2cnccc12)C(=O)O [BAY-0361]
inactive: inhibition [1] 5.52% | inhibition [2] -8.98% | inhibition [3] -8.53% | inhibition [4] 18.7% | inhibition [5] 38.8% | inhibition [6] 11.6% | inhibition [7] 21.6% | inhibition [8] 2.07% | inhibition [9] -8.53% | inhibition [10] 8.67% | inhibition [11] -9.08% | inhibition [12] -6.46% | inhibition [13] 4.36% | inhibition [14] 3.55% | inhibition [15] 7.14% | inhibition [17] -9.27% | inhibition [18] -9.19% | inhibition [19] 23.1% | inhibition [20] 9.78% | inhibition [21] 41.8% | inhibition [22] -5.16% | inhibition [23] 46.6% | inhibition [26] -6.08% | inhibition [27] -7.7% | inhibition [28] -8.01% | inhibition [29] 8.09% | inhibition [30] -0.83%
active: inhibition [16] 51%
> 10 µM: Ki [24] | Ki [25]
< 5: pKi [24] | pKi [25]
9.48 µM: Ki [31]
